Laboratory results from Sander's compilation of Henry's law constants (doi:10.1016/j.chroma.2014.03.040).

Test: Henry solubility constant Hcp at 298.15 K (mol/(m3 Pa))
Details: reference: Kim and Kim (2014)

| SMILES | Henry solubility constant Hcp |
| --- | --- |
| Cc1ccccc1C [1,2-dimethylbenzene] | 0.0019 |
| Cc1cccc(C)c1 [1,3-dimethylbenzene] | 0.0013 |
| Cc1ccc(C)cc1 [1,4-dimethylbenzene] | 0.0013 |
| CC(C)CO [2-methyl-1-propanol] | 0.22 |
| CC(C)CC=O [3-methylbutanal] | 0.021 |
| CC(=O)CC(C)C [4-methyl-2-pentanone] | 0.039 |
| c1ccccc1 [benzene] | 0.0017 |
| CCCC=O [butanal] | 0.061 |
| CCCCOC(C)=O [butyl ethanoate] | 0.024 |
| C=Cc1ccccc1 [ethenylbenzene] | 0.0027 |
| Cc1ccccc1 [methylbenzene] | 0.0015 |
| CCCCC=O [pentanal] | 0.039 |
